Data reported in US7960397B2, “6,9-disubstituted purine derivatives and their use as cosmetics and cosmetic compositions” (Institute of Experimental Botany, Academy of Sciences of …, priority 2007, dated 2011).

Assays:
[1] = test system: breast carcinoma cell line MCF-7; assay: In vitro cytotoxicity, Calcein AM assay; conditions: read-out: GI50 MCF7; MCF7, 72 hours, Calcein AM
excised wheat leaf tips = assay: Antisenescence test, retention of chlorophyll in excised wheat leaf tips; set-up: species or system Triticum aestivum cv. Hereward; conditions: for activity (%) [10^−4 mol · l^−1 BAP = 100%]: retention of chlorophyll in excised wheat leaf tips at the concentration with highest activity, 10 replicate determinations; for concentration with highest activity: retention of chlorophyll in excised wheat leaf tips, tested range 10^−8 M to 10^−4 M, 96 h in the dark at 25° C.
Experimental: Testing of antisenescence properties of novel cytokinin compounds on wheat leaf segments. Seeds of winter wheat, Triticum aestivum cv. Hereward, were washed under running water for 24 hours and then sown on vermiculite soaked with the Knop's solution. They were placed in the grow chamber at 25° C. with a 16 h-8 h light period at 50 mmol.m^−2.s^−1. After 7 days, the first leaf was fully developed and the second leaf had started to grow. A 35 mm long tip section of the first leaf, was removed from each of 5 seedlings and trimmed slightly to a combined weight of 100 mg. The basal ends of the five leaf tips were placed in the wells of a microtiter polystyrene plate containing […] of the solution of the tested compound each. The entire plate was inserted into a plastic box lined with paper tissues soaked with distilled water to prevent leaf sections from drying out. After 96 h incubation in the dark at 25° C., the leaves were removed and chlorophyll was extracted by heating at 80° C. for 10 min in 5 ml of 80% ethanol (v/v). The sample volume was then restored to 5 ml by the addition of 80% ethanol (v/v). The absorbance of the extract was recorded at 665 nm. In addition, chlorophyll extracts from fresh leaves and leaf tips incubated in deionized water were measured. […] Relative activity of the compound at this concentration was calculated (Table 7). The activity obtained for 10^−4 M 6-benzylaminopurine (BAP) was defined as 100%. The values shown are means of five replicates and the whole experiment was repeated twice.
(§1) The compounds to be tested were dissolved in dimethylsulfoxide (DMSO) and the solution brought up to 10^−3 M with distilled water.

human osteosarcoma HOS = assay: In vitro cytotoxicity, Calcein AM assay; conditions: read-out: GI50 HOS; HOS, 72 hours, Calcein AM
[2] = test system: Amaranthus caudatus cotyledon/hypocotyl explants; assay: Amaranthus bioassay (betacyanin content); set-up: species or system Amaranthus caudatus var. atropurpurea; conditions: for concentration with highest activity: betacyanin content after 48 h incubation, tested 10^−8 M to 10^−4 M; for Activity (%) [10^−5 mol · l^−1 BAP = 100%]: betacyanin content at the concentration with highest activity, 10^−5 M BAP = 100%
Experimental: Testing of novel compounds for typical cytokinin activity in Amaranthus bioassay. A standard Amaranthus bioassay was performed with several modifications. The seeds of Amaranthus caudatus var. atropurpurea were surface-sterilized in 10% (w/v) N-chlorobenzenesulfonamide for 10 min and washed 5 times with deionized water. They were placed in 14 cm Petri dishes containing paper tissues saturated with deionized water. After 72 h of cultivation at 25° C. in darkness, the roots of the seedlings were cut off. The explants, consisting of two cotyledons and hypocotyls, were placed in 5 cm Petri dishes onto two layers of filter paper soaked with 1 ml of the incubation medium containing 10 mmol of NA2HPO4—KH2PO4, pH 6.8, 5 mmol of tyrosine and the compound to be tested. There were 20 explants per dish. The procedure was carried out under a green safe light in a darkroom. […] The concentration of betacyanin was determined from the absorbencies at 537 nm and 620 nm as follows: DA=A537 nm−A620 nm. […] Relative activity of the compound at this concentration was calculated. The activity obtained for 10^−5 M 6-benzylaminopurine (BAP) was defined as 100%.
as §1

mouse fibroblasts NIH3T3 = assay: In vitro cytotoxicity, Calcein AM assay; conditions: read-out: GI50 NIH-3T3; NIH-3T3, 72 hours, Calcein AM
[3] = test system: promyelocytic HL-60 leukemia; assay: In vitro cytotoxicity, Calcein AM assay; conditions: read-out: GI50 HL60; HL60, 72 hours, Calcein AM
[4] = test system: human diploid fibroblasts (HCA cells, HCA20, HCA40, HCA60); assay: Senescent cells (β-galactosidase staining) in culture of human fibroblasts; assay type: cell-based; conditions: for SENESCENT CELLS (%) HCA20: human fibroblasts passage 20 (HCA20); for SENESCENT CELLS (%) HCA40: human fibroblasts passage 40 (HCA40); for SENESCENT CELLS (%) HCA60: human fibroblasts passage 60 (HCA60)
Experimental: In this example, human diploid fibroblasts (HCA cells of various passage levels: passage 20—designated HCA20; passage 40—designated HCA40; passage 60—designated HCA60) were stained for β-galactosidase activity. The medium used for the cell cultivation was removed, the cells were washed twice in […], and fixed in 2-3 ml of fixing solution comprised of a 2% formaldehyde and 0.2% glutaraldehyde in PBS. The cells were incubated at room temperature for 5 minutes, and then washed twice with PBS. The cells were subsequently incubated at 37° C.

[5] = test system: cytokinin-dependent tobacco callus Nicotiana tabacum L. cv. Wisconsin 38; assay: Cytokinin activity in tobacco callus bioassay; assay type: cell-based; conditions: for concentration with highest activity: growth of tobacco callus, four weeks of cultivation, tested 10^−8 M to 10^−4 M; for Activity (%) [10^−5 mol · l^−1 BAP = 100%]: increase of fresh callus weight at the concentration with highest activity, 10^−5 M BAP = 100%
Experimental: Estimation of cytokinin biological activity of novel compounds in callus bioassay. Cytokinin-dependent tobacco callus Nicotiana tabacum L. cv. […] Subcultivation was carried out every three weeks. Fourteen days before the bioassay, the callus tissue was transferred to the media without the compound tested. The biological activity was determined from the increase of the fresh callus weight after four weeks of cultivation. Five replicates were prepared for each concentration of the compound tested and the entire test was repeated twice. […] The relative activity of the compound at this concentration was calculated (Table 8). […] The compounds to be tested were dissolved in dimethylsulfoxide (DMSO) and the solution brought up to 10^−3 M with distilled water. This stock solution was further diluted with the respective media used for the biotest to a concentration ranging from 10^−8 M to 10^−4 M.

Row | SMILES | GI50 [1] | activity (%) [10^−4 mol · l^−1 BAP = 100%] (excised wheat leaf tips) | concentration with highest activity (excised wheat leaf tips) | GI50 (human osteosarcoma HOS) | concentration with highest activity [2] | Activity (%) [10^−5 mol · l^−1 BAP = 100%] [2] | GI50 (mouse fibroblasts NIH3T3) | GI50 [3] | SENESCENT CELLS (%) HCA20 [4] | SENESCENT CELLS (%) HCA40 [4] | SENESCENT CELLS (%) HCA60 [4] | concentration with highest activity [5] | Activity (%) [10^−5 mol · l^−1 BAP = 100%] [5]
1 | Oc1ccc(CNc2ncnc3c2ncn3CCCCCl)cc1 [4-hydroxybenzylamino / 4-chlorobutyl, 6-(4-hydroxybenzylamine)-9-(4-chlorobutyl)purine] | > 167 µM | 33.4% | 10^−4 mol · l^−1 | > 167 µM | 10^−4 mol · l^−1 | 33.4% | > 167 µM | > 167 µM |  |  |  |  | 
2 | Oc1ccccc1CNc1ncnc2c1ncn2C1CCCO1 (stereo not drawn) [6-(2-hydroxybenzylamino)-9-(tetrahydrofuran-2-yl)-purine] |  | 26% | 10^−4 mol · l^−1 |  | 10^−4 mol · l^−1 | 33% |  |  | 4% | 2% | 26% | 10^−5 mol · l^−1 | 78%
3 | Oc1ccccc1CNc1ncnc2c1ncn2C1CCCCO1 (stereo not drawn) [6-(2-hydroxybenzylamino)-9-(tetrahydropyran-2-yl)purine] |  | 23.6% | 10^−4 mol · l^−1 |  | 10^−4 mol · l^−1 | 41.6% |  |  | 4% | 2% | 26% | 10^−5 mol · l^−1 | 80%
4 | Oc1cccc(CNc2ncnc3c2ncn3C2CCCO2)c1 (stereo not drawn) [6-(3-hydroxybenzylamino)-9-(tetrahydrofuran-2-yl)-purine] |  | 113% | 10^−4 mol · l^−1 |  | 10^−4 mol · l^−1 | 107% |  |  | 5% | 3% | 25% | 10^−5 mol · l^−1 | 125%
5 | Oc1cccc(CNc2ncnc3c2ncn3C2CCCCO2)c1 (stereo not drawn) [6-(3-hydroxybenzylamino)-9-(tetrahydropyran-2-yl)purine] |  | 133.1% | 10^−4 mol · l^−1 |  | 10^−4 mol · l^−1 | 105.1% |  |  | 5% | 3% | 25% | 10^−5 mol · l^−1 | 139%
6 | CC(CO)CCNc1ncnc2c1ncn2C1CCCCO1 (stereo not drawn) [6-(4-hydroxy-3-methylbutylamino)-9-(tetrahydropyran-2-yl)purine] |  | 95% | 10^−4 mol · l^−1 |  | 10^−4 mol · l^−1 | 83% |  |  | 5% | 2% | 25% | 10^−5 mol · l^−1 | 112%
7 | CCOCCn1cnc2c(NCc3ccc(O)cc3)ncnc21 [Compound 133, 6-(4-hydroxybenzylamine)-9-(1-ethoxyeth-2-yl)purine] | > 167 µM |  |  | > 167 µM |  |  | > 167 µM | > 167 µM |  |  |  |  | 
